Test results: patent US6461997B1, “Triazole sulfones having herbicidal activity” (Monsanto Technology LLC, priority 1999, dated 2002)

Tests used:
[1] = system: AEGCY (jointed goatgrass); experiment: Post-emergence herbicidal activity, cool season; type: in vivo, Aegilops cylindrica; settings: abraded plants sprayed at 300, 100, 30 and 10 g/ha; about 14 days after treatment
Protocol: (§1) In another set of tests, the post-emergence activity of compounds of this invention was evaluated on the cool season species listed above. The following procedure was used.
(§2) A pre-prepared topsoil mixture (described above) was placed in a pot and compacted to a depth of 1.0 to 1.25 cm from the top of the pot. Seeds of each of several monocotyledonous and dicotyledonous annual plant species were placed on top of the soil. The seeds were covered with a mixture of 50% topsoil and 50% Rediearth™ in sufficient quantity to level-fill the pots. The pots were then placed on a greenhouse bench and subirrigated as needed.
(§3) When plants growing from the seeds had emerged and reached a suitable growth stage for post-emergence treatment, typically 9 to 14 days after planting, above-ground parts of the plants were subjected to a pre-treatment involving abrasion to create greater opportunity for foliar uptake of subsequently applied compounds. Abrasion was performed using garnet 200w particles applied with a Sears Craftsman hand-held sandblaster operated at approximately 850 kPa (50 psig) pressure.
(§4) A known amount of each test compound dissolved or suspended in an appropriate organic solvent was diluted with a 50:50 mix of acetone and water and applied to the plants by spraying with a standard spray nozzle in a spray volume of […] at a spray pressure of 511 kPa (30 psig). Only the compounds of Examples 1, 8-15 and 17-22 were included in post-emergence tests. Application rates for these compounds were 300, 100, 30 and 10 g/ha. Control plants were abraded but not sprayed.
(§5) After treatment the plants were placed in a greenhouse with an 18/13° C. day/night temperature regime and were subsequently watered as needed for growth. Approximately 14 days after treatment, the plants were observed and herbicidal efficacy recorded as percent inhibition by comparison with control plants. GR80 values were assigned for each compound as described above for the pre-emergence tests.

[2] = system: LOLMG (annual ryegrass); experiment: Post-emergence herbicidal activity, cool season; type: in vivo, Lolium multiflorum; settings: abraded plants sprayed at 300, 100, 30 and 10 g/ha; about 14 days after treatment
Protocol: as §1, §2, §3, §4, §5

[3] = system: SASKR (russian thistle); experiment: Pre-emergence herbicidal activity, cool season; type: in vivo, Salsola kali; settings: lowest tested rate with 80% or greater inhibition; rates 300, 100, 30, 10 g/ha; about 14 days
Summary of the method: (§6)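 Seeds sown in sterilised fertilised topsoil received surface-applied compound in 50:50 acetone/water, typically at 300, 100, 30 and 10 g/ha, then greenhouse-grown at 30/21° C (warm-season species) or 18/13° C (cool-season species). Percent inhibition versus untreated plants was scored at about 14 days, giving GR80; an asterisk marks activity short of 80% at the top rate.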

[4] = system: PANMI (wild proso millet); experiment: Pre-emergence herbicidal activity, warm season; type: in vivo, Panicum miliaceum; settings: GR80 = lowest tested rate (300, 100, 30, 10 g/ha) with 80% or greater inhibition; approx. 14 days after treating; 30/21° C.
Summary of the method: as §6

[5] = system: SORVU (shattercane); experiment: Pre-emergence herbicidal activity, warm season; type: in vivo, Sorghum vulgare; settings: GR80 = lowest tested rate (300, 100, 30, 10 g/ha) with 80% or greater inhibition; approx. 14 days after treating; 30/21° C.
Summary of the method: as §6

[6] = system: AGSST (creeping bentgrass); experiment: Pre-emergence herbicidal activity, cool season; type: in vivo, Agrostis stolonifera; settings: GR80 = lowest tested rate (300, 100, 30, 10 g/ha) with 80% or greater inhibition; approx. 14 days after treating; 18/13° C.
Summary of the method: as §6

[7] = system: GALAP (catchweed bedstraw); experiment: Pre-emergence herbicidal activity, cool season; type: in vivo, Galium aparine; settings: lowest tested rate with 80% or greater inhibition; rates 300, 100, 30, 10 g/ha; about 14 days
Summary of the method: as §6

[8] = system: LAMPU (purple deadnettle); experiment: Pre-emergence herbicidal activity, cool season; type: in vivo, Lamium purpureum; settings: lowest tested rate with 80% or greater inhibition; rates 300, 100, 30, 10 g/ha; about 14 days
Summary of the method: as §6

[9] = system: GALAP (catchweed bedstraw); experiment: Post-emergence herbicidal activity, cool season; type: in vivo, Galium aparine; settings: abraded plants sprayed; GR80 = lowest tested rate (300, 100, 30, 10 g/ha) with 80% or greater inhibition; approx. 14 days after treatment; 18/13° C.
Protocol: as §1, §2
as §3, with “pressure. […]” for “pressure.”
as §5, with “GR80 values were assigned for each compound as described above for the pre-emergence tests.” left out

[10] = system: AVEFA (wild oat); experiment: Post-emergence herbicidal activity, cool season; type: in vivo, Avena fatua; settings: abraded plants sprayed at 300, 100, 30 and 10 g/ha; about 14 days after treatment
Protocol: as §1, §2, §3, §4, §5

[11] = system: SINAR (wild mustard); experiment: Pre-emergence herbicidal activity, cool season; type: in vivo, Sinapis arvensis; settings: lowest tested rate with 80% or greater inhibition; rates 300, 100, 30, 10 g/ha; about 14 days
Summary of the method: as §6

[12] = system: VERPE (creeping speedwell); experiment: Pre-emergence herbicidal activity, cool season; type: in vivo, Veronica persicaria; settings: lowest tested rate with 80% or greater inhibition; rates 300, 100, 30, 10 g/ha; about 14 days
Summary of the method: as §6

[13] = system: AGRRE (quackgrass (seedling)); experiment: Post-emergence herbicidal activity, cool season; type: in vivo, Elymus repens; settings: abraded plants sprayed at 300, 100, 30 and 10 g/ha; about 14 days after treatment
Protocol: as §1, §2, §3, §4, §5

[14] = system: AGSST (creeping bentgrass); experiment: Post-emergence herbicidal activity, cool season; type: in vivo, Agrostis stolonifera; settings: abraded plants sprayed at 300, 100, 30 and 10 g/ha; about 14 days after treatment
Protocol: as §1, §2, §3, §4, §5

[15] = system: POLCO (wild buckwheat); experiment: Pre-emergence herbicidal activity, cool season; type: in vivo, Polygonum convolvulus; settings: lowest tested rate with 80% or greater inhibition; rates 300, 100, 30, 10 g/ha; about 14 days
Summary of the method: as §6

[16] = system: ECHCG (barnyardgrass); experiment: Pre-emergence herbicidal activity, warm season; type: in vivo, Echinochloa crus-galli; settings: GR80 = lowest tested rate (300, 100, 30, 10 g/ha) with 80% or greater inhibition; approx. 14 days after treating; 30/21° C.
Summary of the method: as §6

[17] = system: STEME (common chickweed); experiment: Pre-emergence herbicidal activity, cool season; type: in vivo, Stellaria media; settings: lowest tested rate with 80% or greater inhibition; rates 300, 100, 30, 10 g/ha; about 14 days
Summary of the method: as §6

[18] = system: BROTE (downy brome); experiment: Post-emergence herbicidal activity, cool season; type: in vivo, Bromus tectorum; settings: abraded plants sprayed at 300, 100, 30 and 10 g/ha; about 14 days after treatment
Protocol: as §1, §2, §3, §4, §5

[19] = system: ALOMY (blackgrass); experiment: Post-emergence herbicidal activity, cool season; type: in vivo, Alopecurus myosuroides; settings: abraded plants sprayed at 300, 100, 30 and 10 g/ha; about 14 days after treatment
Protocol: as §1, §2, §3, §4, §5

[20] = system: BRAPP (broadleaf signalgrass); experiment: Pre-emergence herbicidal activity, warm season; type: in vivo, Brachiaria platyphylla; settings: GR80 = lowest tested rate (300, 100, 30, 10 g/ha) with 80% or greater inhibition; approx. 14 days after treating; 30/21° C.
Summary of the method: as §6

[21] = system: SETVI (green foxtail); experiment: Post-emergence herbicidal activity, cool season; type: in vivo, Setaria viridis; settings: abraded plants sprayed at 300, 100, 30 and 10 g/ha; about 14 days after treatment
Protocol: as §1, §2, §3, §4, §5

CCN(CC)C(=O)n1cnc(S(=O)(=O)C(F)(F)SCCO)n1 [Example 12, 1-(N,N-diethylcarbamoyl)-3-[(2-hydroxyethylthio)difluoromethylsulfonyl]-1,2,4-triazole]
Post-emergence activity GR80, AEGCY [1]: [empty]
Post-emergence activity GR80, LOLMG [2]: [empty]
Pre-emergence activity GR80, SASKR [3]: [empty]
Pre-emergence activity (GR80) PANMI [4]: * (activity observed, at least at highest rate, but <80% inhibition)
Pre-emergence activity (GR80) SORVU [5]: * (activity observed, at least at highest rate, but <80% inhibition)
Pre-emergence activity (GR80) AGSST [6]: 300 g/ha
Pre-emergence activity GR80, GALAP [7]: [empty]
Pre-emergence activity GR80, LAMPU [8]: 300 g/ha
Post-emergence activity (GR80) GALAP [9]: 300 g/ha
Post-emergence activity GR80, AVEFA [10]: [empty]
Pre-emergence activity GR80, SINAR [11]: [empty]
Pre-emergence activity GR80, VERPE [12]: [empty]
Post-emergence activity GR80, AGRRE [13]: [empty]
Post-emergence activity GR80, AGSST [14]: [empty]
Pre-emergence activity GR80, POLCO [15]: [empty]
Pre-emergence activity (GR80) ECHCG [16]: * (activity observed, at least at highest rate, but <80% inhibition)
Pre-emergence activity GR80, STEME [17]: 300 g/ha
Post-emergence activity GR80, BROTE [18]: [empty]
Post-emergence activity GR80, ALOMY [19]: [empty]
Pre-emergence activity (GR80) BRAPP [20]: * (activity observed, at least at highest rate, but <80% inhibition)
Post-emergence activity GR80, SETVI [21]: [empty]
